The text below walks through data of patent US20160106719A1, “Transplantation Adjuvant in Cell Therapy Using Neural Progenitor Cells” (SUMITOMO DAINIPPON PHARMA CO., LTD., priority 2013, published 2016).

Experiment [1] relates to TH+ neurons derived from mouse iPS cells. The experiment is described as follows: In vitro survival of TH+ neurons with caspase 3 expression as index of apoptosis. The experiment is classed as cell-based. To be noted: control 18.0±5.9%; no significant difference among four groups. The procedure: After the cell sorting, in order to induce the reaggregation of the cells, a PSA-NCAM^+ cell group was seeded in a DMEM/F12 medium (manufactured by Wako Pure Chemical Industries, Ltd.) in a 96-well plate at a concentration (cell density) of 20000 cells/well. The DMEM/F12 medium contained 1% N-2 supplement, 200 nM ascorbic acid, 2% B27 supplement (manufactured by Invitrogen), 0.5 mM L-glutamine and 1% P/S. In order to prevent apoptosis, a ROCK inhibitor, Y-27632 (manufactured by Wako Pure Chemical Industries, Ltd.), was used at a concentration of 30 μM during the cell sorting process and the following overnight cultivation. On day 10 after starting the SFEB, any one of valproic acid (VPA) (manufactured by Sigma-Aldrich), zonisamide (ZNS) sodium salt (manufactured by Sumitomo Dainippon Pharma Co., Ltd.), 17β estradiol (E2) (manufactured by Sigma-Aldrich), a glial cell line derived neurotrophic factor (GDNF) (manufactured by R & D Systems) and PBS(-) was added to the medium for 4 days. Each of VPA, ZNS and E2 was used at three different concentrations. Specifically, the concentration of VPA was 0.01 mM, 0.1 mM or 1 mM, the concentration of ZNS was 1 μM, 10 μM or 100 μM, and the concentration of E2 was 1 nM, 10 nM or 100 nM. GDNF was added at a concentration of […] to be used as a positive control. […]

Experiment [2] deals with re-aggregated PSA-NCAM+ cells (neural progenitor cells derived from mouse iPS cell line 440A3). Nature of the experiment: In vitro differentiation of mouse iPS cell-derived neural progenitor cells into dopaminergic neurons (immunocytochemistry for marker molecules). It counts as cell-based. The note with it: for ratio of TH+ cells: day 10 to 14, control 5.2±1.1%. The procedure: DMEM contained 1% fetal bovine serum (FBS), 5% knockout serum replacement (KSR; manufactured by Invitrogen), 0.1 mM non-essential amino acids, 1 mM sodium pyruvate, 0.1 mM 2-mercaptoethanol (2-ME; manufactured by Invitrogen), 2000 U/ml leukemia inhibitory factor (manufactured by Invitrogen), and 1.5 μg/ml puromycin. In order to differentiate and induce the iPS cells into neural cells, serum-free floating culture of embryoid bodies-like aggregates (SFEB) was employed. Specifically, aggregates of the 440A3 cells were separated into individual cells by using 0.25% trypsin/1 mM EDTA (ethylenediaminetetraacetic acid), and the resultant cells were seeded in a 96-well low adhesion plate (product name: Lipidure-Coat Plate A-US96, manufactured by NOF Corporation) at a concentration (cell density) of 3000 cells/well. Thereafter, re-aggregation of the 440A3 cells was induced in a differentiation medium containing GMEM (Glasgow Minimum Essential Medium), 5% KSR, 0.1 mM non-essential amino acids, 1 mM sodium pyruvate and 0.1 mM 2-ME, and this day was defined as day 0 (FIG. 1). During this differentiation process, various factors were added to the differentiation medium for inducing midbrain dopaminergic phenotypes as illustrated in FIG. 1. Specifically, from day 3 to day 7 after starting the SFEB, 20 ng/ml of mouse FGF-8b (manufactured by R & D Systems) was added, from day 4 to day 7 after starting the SFEB, 10 ng/ml of recombinant mouse sonic hedgehog (C25I1) N-terminus (manufactured by R & D Systems) was added, and on and after day 7 after starting the SFEB, 1% N-2 supplement (manufactured by Gibco) and 200 nM ascorbic acid were added. The KSR was removed from the differentiation medium on day 7 after starting the SFEB.
On day 9 after starting the SFEB, the 440A3 cells were washed with phosphate buffered saline (PBS(-)) twice. Thereafter, the 440A3 cells were dissociated into single cells by five-minute incubation performed at 37° C. by using Accumax (manufactured by Innovate Cell Technologies, product name). The cells were collected with a FACS buffer. The FACS buffer was constituted by PBS(-) containing 2% FBS, 20 mM D-glucose and 1% penicillin/streptomycin (P/S, manufactured by Invitrogen). The collected cells were mechanically dissociated into a single cell suspension by a gentle pipetting operation.
Next, the resultant cells were incubated with a mouse anti-PSA-NCAM antibody (dilution rate of 1:200, manufactured by Millipore) at 4° C. for about 30 minutes. Thereafter, a washing operation using a centrifuge was performed twice, and the resultant cells were further incubated for 30 minutes with a secondary antibody of a donkey anti-mouse IgG (dilution rate of 1:400, manufactured by Invitrogen) labeled with AlexaFluor 594. Dead cells and cell debris were excluded by using 7-aminoactinomycin-D (7-AAD, manufactured by BD Pharmigen) stain. The remaining living cells were suspended again at a final concentration (cell density) of 1×10^7 cells/ml. Cell sorting was conducted by using a FACSAria II cell sorter (manufactured by Becton Dickinson And Company) equipped with a 488 nm argon laser, a 633 nm helium-neon laser, a 100 μm nozzle and a FACSDiva software program. A PSA-NCAM positive rate was determined on the basis of a negative control not using a primary antibody.
After the cell sorting, in order to induce the reaggregation of the cells, a PSA-NCAM^+ cell group was seeded in a DMEM/F12 medium (manufactured by Wako Pure Chemical Industries, Ltd.) in a 96-well plate at a concentration (cell density) of 20000 cells/well. The DMEM/F12 medium contained 1% N-2 supplement, 200 nM ascorbic acid, 2% B27 supplement (manufactured by Invitrogen), 0.5 mM L-glutamine and 1% P/S. In order to prevent apoptosis, a ROCK inhibitor, Y-27632 (manufactured by Wako Pure Chemical Industries, Ltd.), was used at a concentration of 30 μM during the cell sorting process and the following overnight cultivation. […]

For `CCCC(CCC)C(=O)[O-].[Na+]` [VPA, sodium 2-propylpentanoate], the “ratio of dopaminergic neurons undergoing apoptosis (TH+ neurons expressing caspase 3)” value in experiment [1] is on record as “low”. For the same compound, the results for the “ratio of TH+ cells” value in experiment [2] (VPA 0.01 mM) and in experiment [2] (VPA 0.1 mM) were 12.1±1.5% and 11.7±0.4%, respectively. Further, the “ratio of TH+ FOXA2+ cells” value in experiment [2] (VPA 0.1 mM, control 0.25±0.22%) was 1.00±0.58%. Moreover, the “ratio of TH+ NURR1+ cells” value in experiment [2] (VPA 0.1 mM, control 0.37±0.32%) is reported as 1.00±0.70%.
